Patent publication US9790210B2, “N-(monocyclic aryl),N'-pyrazolyl-urea, thiourea, guanidine and cyanoguanidine compounds as TrkA kinase inhibitors” (Array BioPharma Inc., priority 2012, dated 2017)

Assays:
Type in all cases: biochemical
off-target kinases = experiment: KinaseProfiler off-target kinase profiling, full kinase panel; conditions: 10 μM; panel of about 230 kinases
Method: (§1) A representative compound (Example 15) of the invention was tested for off-target kinase activity at a concentration of 10 μM by Millipore, Inc. in their KinaseProfiler™ service against all the kinases available in their full kinase panel. The compound was run in duplicate at a concentration of ATP near the Km for each individual kinase according to Millipore's specifications. The results are shown in Table B. Data are reported as percent of control (POC) and are the average of the two replicates.
Such a drug profile would represent a safer approach to treating pain, inflammation, cancer and certain skin diseases than has been previously reported.

AKT3 = molecular target: T1, AKT3 (Homo sapiens, UniProt Q9Y243); experiment: KinaseProfiler; conditions: 10 μM, ATP near Km
T1 construct: purchased Millipore (KinaseProfiler service)
Procedure, shortened: (§2)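 10 μM compound, n=2; ATP ~Km per kinase. Readout: POC, mean of duplicates.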

Abl-P = molecular target: T2, Abl-P (Homo sapiens, UniProt P00519); experiment: KinaseProfiler; conditions: 10 μM, ATP near Km
T2 construct: purchased Millipore (KinaseProfiler service)
Procedure, shortened: as §2

CAMK2b = molecular target: T3, CAMK2b (Homo sapiens, UniProt Q13554); experiment: KinaseProfiler; conditions: 10 μM, ATP near Km
T3 construct: purchased Millipore (KinaseProfiler service)
Procedure, shortened: as §2

CAMK2g = molecular target: T4, CAMK2g (Homo sapiens, UniProt Q13555); experiment: KinaseProfiler; conditions: 10 μM, ATP near Km
T4 construct: purchased Millipore (KinaseProfiler service)
Procedure, shortened: as §2

CDK5/p25 = molecular target: T5, CDK5/p25 (Homo sapiens, UniProt Q00535); experiment: KinaseProfiler; conditions: 10 μM, ATP near Km
T5 construct: purchased Millipore, Inc. (KinaseProfiler service)
Procedure, shortened: as §2

CDK5/p35 = molecular target: T6, CDK5/p35 (Homo sapiens, UniProt Q00535); experiment: KinaseProfiler; conditions: 10 μM, ATP near Km
T6 construct: purchased Millipore, Inc. (KinaseProfiler service)
Procedure, shortened: as §2

CDK9/cyclinT1 = molecular target: T7, CDK9/cyclinT1 (Homo sapiens, UniProt P50750); experiment: KinaseProfiler; conditions: 10 μM, ATP near Km
T7 construct: purchased Millipore, Inc. (KinaseProfiler service)
Procedure, shortened: as §2

DAPK2 = molecular target: T8, DAPK2 (Homo sapiens, UniProt Q9UIK4); experiment: KinaseProfiler; conditions: 10 μM, ATP near Km
T8 construct: purchased Millipore, Inc. (KinaseProfiler service)
Procedure, shortened: as §2

DCAMKL2 = molecular target: T9, DCAMKL2 (Homo sapiens, UniProt Q8N568); experiment: KinaseProfiler; conditions: 10 μM, ATP near Km
T9 construct: purchased Millipore, Inc. (KinaseProfiler service)
Procedure, shortened: as §2

EphA7 = molecular target: T10, EphA7 (Homo sapiens, UniProt Q15375); experiment: KinaseProfiler; conditions: 10 μM, ATP near Km
T10 construct: purchased Millipore, Inc. (KinaseProfiler service)
Procedure, shortened: as §2

EphB1 = molecular target: T11, EphB1 (Homo sapiens, UniProt P54762); experiment: KinaseProfiler; conditions: 10 μM, ATP near Km
T11 construct: purchased Millipore, Inc. (KinaseProfiler service)
Procedure, shortened: as §2

Fyn = molecular target: T12, Fyn (Homo sapiens, UniProt P06241); experiment: KinaseProfiler; conditions: 10 μM, ATP near Km
T12 construct: purchased Millipore, Inc. (KinaseProfiler service)
Procedure, shortened: as §2

GRK5 = molecular target: T13, GRK5 (Homo sapiens, UniProt P34947); experiment: KinaseProfiler; conditions: 10 μM, ATP near Km
T13 construct: purchased Millipore, Inc. (KinaseProfiler service)
Procedure, shortened: as §2

GRK6 = molecular target: T14, GRK6 (Homo sapiens, UniProt P43250); experiment: KinaseProfiler; conditions: 10 μM, ATP near Km
T14 construct: purchased Millipore, Inc. (KinaseProfiler service)
Procedure, shortened: as §2

GSK3beta = molecular target: T15, GSK3beta (Homo sapiens, UniProt P49841); experiment: KinaseProfiler; conditions: 10 μM, ATP near Km
T15 construct: purchased Millipore, Inc. (KinaseProfiler service)
Procedure, shortened: as §2

HIPK3 = molecular target: T16, HIPK3 (Homo sapiens, UniProt Q9H422); experiment: KinaseProfiler; conditions: 10 μM, ATP near Km
T16 construct: purchased Millipore, Inc. (KinaseProfiler service)
Procedure, shortened: as §2

IGF-1R = molecular target: T17, IGF-1R (Homo sapiens, UniProt P08069); experiment: KinaseProfiler; conditions: 10 μM, ATP near Km
T17 construct: purchased Millipore, Inc. (KinaseProfiler service)
Procedure, shortened: as §2

MAPKAP-K2 = molecular target: T18, MAPKAP-K2 (Homo sapiens, UniProt P49137); experiment: KinaseProfiler; conditions: 10 μM, ATP near Km
T18 construct: purchased Millipore, Inc. (KinaseProfiler service)
Procedure, shortened: as §2

MARK1 = molecular target: T19, MARK1 (Homo sapiens, UniProt Q9P0L2); experiment: KinaseProfiler; conditions: 10 μM, ATP near Km
T19 construct: purchased Millipore, Inc. (KinaseProfiler service)
Procedure, shortened: as §2

MINK = molecular target: T20, MINK (Homo sapiens, UniProt Q8N4C8); experiment: KinaseProfiler; conditions: 10 μM, ATP near Km
T20 construct: purchased Millipore, Inc. (KinaseProfiler service)
Procedure, shortened: as §2

MKK7beta = molecular target: T21, MKK7beta (Homo sapiens, UniProt O14733); experiment: KinaseProfiler; conditions: 10 μM, ATP near Km
T21 construct: purchased Millipore, Inc. (KinaseProfiler service)
Procedure, shortened: as §2

MSK1 = molecular target: T22, MSK1 (Homo sapiens, UniProt O75582); experiment: KinaseProfiler; conditions: 10 μM, ATP near Km
T22 construct: purchased Millipore, Inc. (KinaseProfiler service)
Procedure, shortened: as §2

MYLK = molecular target: T23, MYLK (Homo sapiens, UniProt Q15746); experiment: KinaseProfiler; conditions: 10 μM, ATP near Km
T23 construct: purchased Millipore, Inc. (KinaseProfiler service)
Procedure, shortened: as §2

PDGFRalpha = molecular target: T24, PDGFRalpha (Homo sapiens, UniProt P16234); experiment: KinaseProfiler; conditions: 10 μM, ATP near Km
T24 construct: purchased Millipore, Inc. (KinaseProfiler service)
Procedure, shortened: as §2

PKCbetaII = molecular target: T25, PKCbetaII (Homo sapiens, UniProt P05771); experiment: KinaseProfiler; conditions: 10 μM, ATP near Km
T25 construct: purchased Millipore, Inc. (KinaseProfiler service)
Procedure, shortened: as §2

PKCiota = molecular target: T26, PKCiota (Homo sapiens, UniProt P41743); experiment: KinaseProfiler; conditions: 10 μM, ATP near Km
T26 construct: purchased Millipore, Inc. (KinaseProfiler service)
Procedure, shortened: as §2

Plk3 = molecular target: T27, Plk3 (Homo sapiens, UniProt Q9H4B4); experiment: KinaseProfiler; conditions: 10 μM, ATP near Km
T27 construct: purchased Millipore, Inc. (KinaseProfiler service)
Procedure, shortened: as §2

ROCK-I = molecular target: T28, ROCK-I (Homo sapiens, UniProt Q13464); experiment: KinaseProfiler; conditions: 10 μM, ATP near Km
T28 construct: purchased Millipore, Inc. (KinaseProfiler service)
Procedure, shortened: as §2

ROCK-II = molecular target: T29, ROCK-II (Homo sapiens, UniProt O75116); experiment: KinaseProfiler; conditions: 10 μM, ATP near Km
T29 construct: purchased Millipore, Inc. (KinaseProfiler service)
Procedure, shortened: as §2

Rsk2 = molecular target: T30, Rsk2 (Homo sapiens, UniProt P51812); experiment: KinaseProfiler; conditions: 10 μM, ATP near Km
T30 construct: purchased Millipore, Inc. (KinaseProfiler service)
Procedure, shortened: as §2

STK33 = molecular target: T31, STK33 (Homo sapiens, UniProt Q9BYT3); experiment: KinaseProfiler; conditions: 10 μM, ATP near Km
T31 construct: purchased Millipore, Inc. (KinaseProfiler service)
Procedure, shortened: as §2

TNK2 = molecular target: T32, TNK2 (Homo sapiens, UniProt Q07912); experiment: KinaseProfiler; conditions: 10 μM, ATP near Km
T32 construct: purchased Millipore, Inc. (KinaseProfiler service)
Procedure, shortened: as §2

TSSK1 = molecular target: T33, TSSK1 (Homo sapiens, UniProt Q9BXA7); experiment: KinaseProfiler; conditions: 10 μM, ATP near Km
T33 construct: purchased Millipore, Inc. (KinaseProfiler service)
Procedure, shortened: as §2

TrkB = molecular target: T34, TrkB (Homo sapiens, UniProt Q16620); experiment: KinaseProfiler; conditions: 10 μM, ATP near Km
T34 construct: purchased Millipore, Inc. (KinaseProfiler service)
Procedure, shortened: as §2

TrkA = TrkA (Homo sapiens, UniProt P04629); experiment: KinaseProfiler; design: purchased Millipore, Inc. (KinaseProfiler service); conditions: 10 μM, ATP near Km
Method: as §1

T14 sequence (P43250 whole entry): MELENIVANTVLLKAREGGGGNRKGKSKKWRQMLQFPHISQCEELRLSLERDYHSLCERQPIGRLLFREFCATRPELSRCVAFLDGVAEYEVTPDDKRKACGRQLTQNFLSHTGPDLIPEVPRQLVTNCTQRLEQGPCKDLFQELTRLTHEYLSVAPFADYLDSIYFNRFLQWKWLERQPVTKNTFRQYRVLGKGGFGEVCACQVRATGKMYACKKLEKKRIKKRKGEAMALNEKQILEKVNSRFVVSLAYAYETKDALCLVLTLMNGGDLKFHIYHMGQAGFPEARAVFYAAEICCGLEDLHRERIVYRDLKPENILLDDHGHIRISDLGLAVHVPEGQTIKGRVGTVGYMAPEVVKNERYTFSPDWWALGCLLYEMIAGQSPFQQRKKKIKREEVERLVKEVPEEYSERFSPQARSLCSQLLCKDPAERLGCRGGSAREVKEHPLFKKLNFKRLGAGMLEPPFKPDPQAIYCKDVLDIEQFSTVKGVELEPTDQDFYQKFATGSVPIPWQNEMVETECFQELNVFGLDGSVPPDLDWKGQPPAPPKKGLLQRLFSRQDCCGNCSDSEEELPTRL
T20 sequence (Q8N4C8 whole entry): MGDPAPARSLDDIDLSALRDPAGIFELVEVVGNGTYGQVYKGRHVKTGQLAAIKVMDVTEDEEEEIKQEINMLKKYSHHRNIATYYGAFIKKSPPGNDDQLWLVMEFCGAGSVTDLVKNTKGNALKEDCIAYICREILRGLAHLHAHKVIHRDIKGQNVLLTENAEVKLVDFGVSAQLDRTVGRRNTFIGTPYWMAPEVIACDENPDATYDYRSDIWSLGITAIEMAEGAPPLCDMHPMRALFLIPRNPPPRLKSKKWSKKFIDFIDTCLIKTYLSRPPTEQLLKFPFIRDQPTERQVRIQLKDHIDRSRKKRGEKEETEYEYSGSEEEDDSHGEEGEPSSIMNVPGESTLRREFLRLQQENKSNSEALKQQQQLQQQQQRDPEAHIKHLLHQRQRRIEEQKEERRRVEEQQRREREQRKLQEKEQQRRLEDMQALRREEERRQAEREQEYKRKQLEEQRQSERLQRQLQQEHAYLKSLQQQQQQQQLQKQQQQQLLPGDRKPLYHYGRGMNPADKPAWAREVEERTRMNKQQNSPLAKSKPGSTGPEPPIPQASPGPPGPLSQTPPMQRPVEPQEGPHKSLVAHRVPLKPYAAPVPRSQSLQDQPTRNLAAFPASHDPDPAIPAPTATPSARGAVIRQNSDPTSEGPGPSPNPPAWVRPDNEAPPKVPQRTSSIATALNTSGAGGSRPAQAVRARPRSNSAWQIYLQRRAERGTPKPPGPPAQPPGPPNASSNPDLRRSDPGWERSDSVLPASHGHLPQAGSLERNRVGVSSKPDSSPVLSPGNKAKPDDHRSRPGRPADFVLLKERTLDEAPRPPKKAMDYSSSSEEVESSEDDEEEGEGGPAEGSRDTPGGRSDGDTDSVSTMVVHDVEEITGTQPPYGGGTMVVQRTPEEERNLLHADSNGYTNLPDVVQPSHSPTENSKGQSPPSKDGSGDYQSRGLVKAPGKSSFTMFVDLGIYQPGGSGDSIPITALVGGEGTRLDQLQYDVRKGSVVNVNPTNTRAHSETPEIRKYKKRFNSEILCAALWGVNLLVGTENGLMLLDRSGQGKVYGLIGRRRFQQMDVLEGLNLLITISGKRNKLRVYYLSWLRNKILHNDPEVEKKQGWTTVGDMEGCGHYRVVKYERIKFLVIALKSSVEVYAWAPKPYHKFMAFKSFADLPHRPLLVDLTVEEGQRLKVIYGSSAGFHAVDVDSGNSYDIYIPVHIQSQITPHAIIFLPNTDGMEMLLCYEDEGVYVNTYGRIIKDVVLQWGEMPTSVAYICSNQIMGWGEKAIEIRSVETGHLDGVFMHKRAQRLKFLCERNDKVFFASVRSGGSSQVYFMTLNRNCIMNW
T5 sequence (Q00535 whole entry): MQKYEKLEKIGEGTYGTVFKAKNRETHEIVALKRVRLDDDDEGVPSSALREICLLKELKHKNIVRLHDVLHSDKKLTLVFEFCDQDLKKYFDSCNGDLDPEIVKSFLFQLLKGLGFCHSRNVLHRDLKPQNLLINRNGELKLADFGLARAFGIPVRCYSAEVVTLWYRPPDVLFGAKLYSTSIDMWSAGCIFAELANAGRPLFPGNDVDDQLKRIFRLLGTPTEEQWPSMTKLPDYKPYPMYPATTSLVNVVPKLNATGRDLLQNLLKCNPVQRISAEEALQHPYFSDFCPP
T5 sequence (Q15078 99-307 partner limits assumed): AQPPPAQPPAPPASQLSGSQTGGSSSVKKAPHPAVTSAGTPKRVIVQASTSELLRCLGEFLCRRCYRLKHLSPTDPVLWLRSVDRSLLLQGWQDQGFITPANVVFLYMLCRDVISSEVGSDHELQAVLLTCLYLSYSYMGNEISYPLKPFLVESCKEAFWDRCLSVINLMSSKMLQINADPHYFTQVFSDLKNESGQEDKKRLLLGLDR
T6 sequence (Q00535 whole entry): as the sequence (Q00535 whole entry) above
T6 sequence (Q15078 whole entry partner): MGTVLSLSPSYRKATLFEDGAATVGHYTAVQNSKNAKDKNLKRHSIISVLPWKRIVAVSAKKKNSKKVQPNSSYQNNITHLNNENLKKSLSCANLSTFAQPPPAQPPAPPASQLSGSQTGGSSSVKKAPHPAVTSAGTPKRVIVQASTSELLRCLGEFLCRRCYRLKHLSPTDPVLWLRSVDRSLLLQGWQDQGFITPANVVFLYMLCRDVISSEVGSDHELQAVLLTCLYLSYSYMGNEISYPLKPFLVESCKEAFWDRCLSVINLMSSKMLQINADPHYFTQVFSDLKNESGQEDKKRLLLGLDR
T25 sequence (P05771 1-673 isoform P05771-2): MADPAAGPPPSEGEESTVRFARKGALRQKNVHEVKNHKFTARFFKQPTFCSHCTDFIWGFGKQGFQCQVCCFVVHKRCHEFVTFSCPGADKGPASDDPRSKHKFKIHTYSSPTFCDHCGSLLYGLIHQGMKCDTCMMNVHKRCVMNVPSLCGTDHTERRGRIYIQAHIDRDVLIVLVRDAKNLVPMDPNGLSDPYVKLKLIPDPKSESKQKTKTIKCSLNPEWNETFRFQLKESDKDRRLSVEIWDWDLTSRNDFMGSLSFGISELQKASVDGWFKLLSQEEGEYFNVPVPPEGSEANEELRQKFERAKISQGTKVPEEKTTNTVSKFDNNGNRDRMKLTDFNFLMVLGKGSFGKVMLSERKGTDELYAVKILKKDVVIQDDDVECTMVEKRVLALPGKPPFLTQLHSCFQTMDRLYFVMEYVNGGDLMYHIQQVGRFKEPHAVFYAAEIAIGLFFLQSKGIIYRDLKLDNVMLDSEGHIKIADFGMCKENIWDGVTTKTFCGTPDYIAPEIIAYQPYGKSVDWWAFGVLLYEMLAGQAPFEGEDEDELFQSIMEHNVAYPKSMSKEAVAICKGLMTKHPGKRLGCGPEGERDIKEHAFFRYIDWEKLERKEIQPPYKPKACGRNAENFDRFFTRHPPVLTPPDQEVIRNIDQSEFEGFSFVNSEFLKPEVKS
T1 sequence (Q9Y243 whole entry): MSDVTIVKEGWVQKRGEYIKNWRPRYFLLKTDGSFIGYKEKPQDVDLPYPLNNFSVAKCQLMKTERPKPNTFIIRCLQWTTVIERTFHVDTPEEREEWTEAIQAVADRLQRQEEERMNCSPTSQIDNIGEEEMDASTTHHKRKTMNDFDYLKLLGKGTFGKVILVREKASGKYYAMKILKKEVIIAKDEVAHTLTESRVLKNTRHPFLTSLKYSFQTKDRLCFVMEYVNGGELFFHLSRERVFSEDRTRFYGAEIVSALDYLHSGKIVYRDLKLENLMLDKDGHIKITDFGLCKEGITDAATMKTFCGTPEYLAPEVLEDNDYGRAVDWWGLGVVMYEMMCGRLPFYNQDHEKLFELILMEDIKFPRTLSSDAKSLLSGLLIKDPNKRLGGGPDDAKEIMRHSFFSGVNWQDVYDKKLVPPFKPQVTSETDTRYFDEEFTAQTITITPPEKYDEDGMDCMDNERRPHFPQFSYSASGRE
T33 sequence (Q9BXA7 whole entry): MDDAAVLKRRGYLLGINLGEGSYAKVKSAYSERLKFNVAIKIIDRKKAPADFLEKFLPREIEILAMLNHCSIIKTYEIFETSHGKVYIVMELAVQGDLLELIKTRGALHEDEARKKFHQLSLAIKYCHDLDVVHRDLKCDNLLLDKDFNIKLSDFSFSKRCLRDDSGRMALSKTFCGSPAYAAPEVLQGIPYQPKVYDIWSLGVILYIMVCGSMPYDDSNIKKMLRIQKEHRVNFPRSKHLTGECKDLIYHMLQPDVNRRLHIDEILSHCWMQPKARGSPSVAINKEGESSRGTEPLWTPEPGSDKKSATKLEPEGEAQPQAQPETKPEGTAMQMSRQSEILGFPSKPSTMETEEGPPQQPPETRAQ
T18 sequence (P49137 whole entry): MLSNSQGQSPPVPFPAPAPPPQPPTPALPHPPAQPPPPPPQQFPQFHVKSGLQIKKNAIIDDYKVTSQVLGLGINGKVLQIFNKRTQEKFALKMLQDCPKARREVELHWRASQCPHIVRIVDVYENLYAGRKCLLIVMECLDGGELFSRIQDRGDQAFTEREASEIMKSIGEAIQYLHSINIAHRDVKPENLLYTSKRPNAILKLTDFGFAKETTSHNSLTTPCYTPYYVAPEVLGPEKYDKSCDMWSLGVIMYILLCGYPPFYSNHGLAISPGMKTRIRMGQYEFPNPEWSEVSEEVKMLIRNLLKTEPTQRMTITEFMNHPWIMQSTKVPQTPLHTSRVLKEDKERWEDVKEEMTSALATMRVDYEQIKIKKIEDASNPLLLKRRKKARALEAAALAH

COCCCc1cc(Cl)c(Cl)cc1NC(=O)Nc1c(C)c(-c2cnn(C)c2)nn1-c1ccccc1 [Example 15, 1-(4,5-dichloro-2-(3-methoxypropyl)phenyl)-3-(1′,4-dimethyl-1-phenyl-1H,1′H-[3,4′-bipyrazol]-5-yl)urea]
off-target kinase activity / selectivity for TrkA versus other kinases in the panel (off-target kinases): largely inactive against off-target kinases
Avg POC (AKT3): 119.5 POC
Avg POC (Abl-P): 140.5 POC
Avg POC (CAMK2b): 101.5 POC
Avg POC (CAMK2g): 103 POC
Avg POC (CDK5/p25): 106 POC
Avg POC (CDK5/p35): 110 POC
Avg POC (CDK9/cyclinT1): 112.5 POC
Avg POC (DAPK2): 104.5 POC
Avg POC (DCAMKL2): 136 POC
Avg POC (EphA7): 103 POC
Avg POC (EphB1): 130 POC
Avg POC (Fyn): 111.5 POC
Avg POC (GRK5): 90 POC
Avg POC (GRK6): 103 POC
Avg POC (GSK3beta): 114.5 POC
Avg POC (HIPK3): 101 POC
Avg POC (IGF-1R): 85 POC
Avg POC (MAPKAP-K2): 129.5 POC
Avg POC (MARK1): 107 POC
Avg POC (MINK): 121.5 POC
Avg POC (MKK7beta): 140 POC
Avg POC (MSK1): 132.5 POC
Avg POC (MYLK): 111.5 POC
Avg POC (PDGFRalpha): 117.5 POC
Avg POC (PKCbetaII): 99 POC
Avg POC (PKCiota): 68 POC
Avg POC (Plk3): 109 POC
Avg POC (ROCK-I): 117.5 POC
Avg POC (ROCK-II): 99 POC
Avg POC (Rsk2): 136.5 POC
Avg POC (STK33): 104.5 POC
Avg POC (TNK2): 124 POC
Avg POC (TSSK1): 80 POC
Avg POC (TrkB): 105 POC
Avg POC (TrkA): 0 POC
